From US5789434A, “Derivatives of substituted 4-biarylbutyric acid as matrix metalloprotease inhibitors” (priority 1995, dated 1998)

Tests used:
MMP-3 = molecular target: T1, MMP-3 (Homo sapiens, UniProt P08254); experiment: Primary Thiopeptilide MMP-3 Inhibition Assay; type: biochemical; details: for inhibition at 5 µM: read-out: MMP-3 Thiopep. % inhibition; for IC50: pH 6.5, 13 nM stromelysin, x (n) = average of n determinations, read-out: MMP-3 Thiopep. IC50
T1 construct: Truncated Prostromelysin-257 was expressed in a soluble form in E.coli; made in house; host or cells: E. coli
T1 sequence (P08254 100-274 limits assumed): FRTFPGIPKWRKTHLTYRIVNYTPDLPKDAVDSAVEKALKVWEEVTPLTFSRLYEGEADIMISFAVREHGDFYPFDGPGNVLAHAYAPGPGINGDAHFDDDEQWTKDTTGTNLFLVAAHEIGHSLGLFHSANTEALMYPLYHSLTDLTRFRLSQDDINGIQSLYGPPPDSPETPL
Experimental: Enzyme: recombinant stromelysin expressed in E.coli and purified as described above. […] The protocols for the assay of compounds as stromelysin inhibitors was the same as that used for MMP-9 except that the assay buffer was 50 mM MES, pH 6.5 containing 150 mM NaCl, 10 mM CaCl2, 0.005% Brij, and 1% DMSO.

MMP-9 = molecular target: T2, MMP-9 (Homo sapiens, UniProt P14780); experiment: Thiopeptilide MMP-9 Inhibition Assay; type: biochemical; details: for inhibition at 5 µM: read-out: MMP-9: Thiopep. % inhibition; for IC50: pH 6.5, x (n) = average of n determinations, read-out: MMP-9: Thiopep. IC50
T2 construct: from tissue; host or cells: human polymorphonuclear leukocytes (PMN) from whole blood (New York Blood Center), PMA-stimulated supernatant
T2 sequence (P14780 107-707 limits assumed): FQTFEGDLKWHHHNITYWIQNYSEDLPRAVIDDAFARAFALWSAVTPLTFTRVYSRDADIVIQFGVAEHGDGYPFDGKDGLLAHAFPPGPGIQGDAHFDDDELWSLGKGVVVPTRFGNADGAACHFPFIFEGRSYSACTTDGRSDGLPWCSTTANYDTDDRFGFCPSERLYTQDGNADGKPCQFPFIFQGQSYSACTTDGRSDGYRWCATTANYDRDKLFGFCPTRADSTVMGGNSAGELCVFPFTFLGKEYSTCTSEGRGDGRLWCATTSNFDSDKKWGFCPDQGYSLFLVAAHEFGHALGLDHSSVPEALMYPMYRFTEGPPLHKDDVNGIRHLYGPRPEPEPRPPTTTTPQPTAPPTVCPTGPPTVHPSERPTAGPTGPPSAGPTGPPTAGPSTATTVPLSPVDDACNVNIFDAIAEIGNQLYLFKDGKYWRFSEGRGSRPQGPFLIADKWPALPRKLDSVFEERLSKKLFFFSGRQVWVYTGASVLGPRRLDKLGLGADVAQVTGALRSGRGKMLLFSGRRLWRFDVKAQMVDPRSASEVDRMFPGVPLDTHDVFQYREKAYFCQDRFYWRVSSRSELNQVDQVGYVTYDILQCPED

SMILES | inhibition at 5 µM (MMP-3) [%] | inhibition at 5 µM (MMP-9) [%] | IC50 (MMP-3) [nM] | IC50 (MMP-9) [nM]
CC(C)C[C@H](CC(=O)c1ccc(-c2ccc(Cl)cc2)cc1)C(=O)O [Example 3, [1,1'-Biphenyl]-4-butanoic acid, 4'-chloro-α-(2-methylpropyl)-γ-oxo-, (R)-] | 13 | 0 |  | 
O=C(c1ccc(-c2ccc(Cl)cc2)cc1)[C@H]1CC[C@H]1C(=O)O (relative stereo) [Example 290, Cyclobutanecarboxylic acid, 2-[(4'-chloro[1,1'-biphenyl]-4-yl)carbonyl]-, cis-] | 35 | 15 |  | 
O=C(C[C@H](CCCc1ccccc1)C(=O)O)c1ccc(-c2ccc(Br)cc2)cc1 [Example 178, [1,1'-Biphenyl]-4-butanoic acid, 4'-bromo-γ-oxo-α-(3-phenylpropyl)-, (S)-] |  |  | 150 | 240
CCc1ccccc1SCC(CC(=O)c1ccc(-c2ccc(Cl)cc2)cc1)C(=O)O (stereo not drawn) [Example 220, [1,1'-Biphenyl]-4-butanoic acid, 4'-chloro-α-[[(2-ethylphenyl)thio]methyl]-γ-oxo-] |  |  | 190 | 950
O=C(O)c1ccccc1C(=O)c1ccc(-c2ccc(Cl)cc2)cc1 [Example 287, Benzoic acid, 2-[(4'-chloro[1,1'-biphenyl]-4-yl)carbonyl]-] | 26 | 3 |  | 
O=C(O)[C@H]1[C@@H](Sc2ccccc2)CC[C@@H]1C(=O)c1ccc(-c2ccc(Cl)cc2)cc1 (relative stereo) [Example 295] |  |  | 99 | 600
O=C(CC(CCc1ccccc1)C(=O)O)c1ccc(-c2ccc(Cl)cc2)cc1 (stereo not drawn) [Example 132, [1,1'-Biphenyl]-4-butanoic acid, 4'-chloro-γ-oxo-α-(2-phenylethyl)-] |  |  | 112 | 2600
O=C(CC(CSCc1ccccc1)C(=O)O)c1ccc(-c2ccc(Cl)cc2)cc1 (stereo not drawn) [Example 203, [1,1'-Biphenyl]-4-butanoic acid, 4'-chloro-γ-oxo-α-[[(phenylmethyl)thio]methyl]-] |  |  | 247 | 1200
O=C(CC(CCCc1ccccc1)C(=O)O)c1ccc(-c2ccc(F)c(Cl)c2)cc1 (stereo not drawn) [Example 74, [1,1'-Biphenyl]-4-butanoic acid, 3'-chloro-4'-fluoro-γ-oxo-α-(3-phenylpropyl)-] |  | 38 | 2300 | 
CC(CC(=O)O)CC(=O)c1ccc(-c2ccc(Cl)cc2)cc1 (stereo not drawn) [Example 332, [1,1'-Biphenyl]-4-pentanoic acid, 4'-chloro-β-methyl-δ-oxo-, reference compound] | 37 | 41 |  | 
C=C(CC(=O)O)C(=O)c1ccc(-c2ccc(Cl)cc2)cc1 [Example 32, [1,1'-Biphenyl]-4-butanoic acid, 4'-chloro-β-methylene-γ-oxo-, reference compound] | 58 |  |  | 6000
O=C(CC(CSc1ccc(Cl)cc1)C(=O)O)c1ccc(-c2ccc(Cl)cc2)cc1 (stereo not drawn) [Example 209, [1,1'-Biphenyl]-4-butanoic acid, 4'-chloro-α-[[(4-chlorophenyl)thio]methyl]-γ-oxo-] |  |  | 340 | 390
O=C(CC(CCCc1ccccc1)C(=O)O)c1ccc(-c2ccc(OCCCl)cc2)cc1 (stereo not drawn) [Example 52, [1,1'-Biphenyl]-4-butanoic acid, 4'-(2-chloroethoxy)-γ-oxo-α-(3-phenylpropyl)-] |  |  | 76 | 37
CC(=O)Oc1ccc(-c2ccc(C(=O)CC(CCCc3ccccc3)C(=O)O)cc2)cc1 (stereo not drawn) [Example 67, [1,1'-Biphenyl]-4-butanoic acid, 4'-(acetyloxy)-γ-oxo-α-(3-phenylpropyl)-] |  |  | 150 | 780
O=C(CC(CCCc1ccccc1)P(=O)(O)O)c1ccc(-c2ccc(Br)cc2)cc1 (stereo not shown) [Example 345, Phosphonic acid, [1-[2-(4'-bromo[1,1'-biphenyl]-4-yl)-2-oxoethyl]-4-phenylbutyl]-] |  | 30 | 5000 | 
CCC(C)(CC(=O)O)CC(=O)c1ccc(-c2ccc(Cl)cc2)cc1 (stereo not drawn) [Example 335, [1,1'-Biphenyl]-4-pentanoic acid, 4'-chloro-β-ethyl-β-methyl-δ-oxo-] | 55 |  |  | 6000
CC(C)CC(CC(=O)c1ccc(-c2ccc(F)cc2)cc1)C(=O)O (stereo not drawn) [Example 15, [1,1'-Biphenyl]-4-butanoic acid, 4'-fluoro-α-(2-methylpropyl)-γ-oxo-] |  | 0 | 2000 | 
Cc1nc(-c2ccc(C(=O)CC(CC(C)C)C(=O)O)cc2)cs1 (stereo not drawn) [Example 348, Benzenebutanoic acid, α-(2-methylpropyl)-4-(2-methyl-4-thiazolyl)γ-oxo-] | 31 | 36 |  | 
O=C(CC(SCc1ccccc1)C(=O)O)c1ccc(-c2ccc(Cl)cc2)cc1 (stereo not drawn) [Example 252, [1,1'-Biphenyl]-4-butanoic acid, 4'-chloro-γ-oxo-α-[(phenylmethyl)thio]-] |  |  | 293 | 2900

SMILES | inhibition at 5 µM (MMP-3) [%] | inhibition at 5 µM (MMP-9) [%] | IC50 (MMP-3) [nM] | IC50 (MMP-9) [nM]
COc1ccc(CSCC(CC(=O)c2ccc(-c3ccc(Cl)cc3)cc2)C(=O)O)cc1 (stereo not drawn) [Example 201, [1,1'-Biphenyl]-4-butanoic acid, 4'-chloro-α-[[[(4-methoxyphenyl)methyl]thio]methyl]-γ-oxo-] |  |  | 340 | 800
C=C(CC(=O)c1ccc(-c2ccccc2Cl)cc1)C(=O)O [Example 24, [1,1'-Biphenyl]-4-butanoic acid, 2'-chloro-α-methylene-γ-oxo-, reference compound] | 40 | 0 |  | 
O=C(O)CC(CSc1cccs1)C(=O)c1ccc(-c2ccc(Cl)cc2)cc1 (stereo not drawn) [Example 255, [1,1'-Biphenyl]-4-butanoic acid, 4'-chloro-γ-oxo-β-[(2-thienylthio)methyl]-] |  |  | 950 | 2000
O=C(O)CCC(=O)c1ccc(-c2ccc(Cl)cc2)cc1 [Example 6, [1,1'-Biphenyl]-4-butanoic acid, 4'-chloro-γ-oxo-, reference compound] |  | 38 | 2100 | 
O=C(CC(CSc1ccccc1CO)C(=O)O)c1ccc(-c2ccc(Cl)cc2)cc1 (stereo not drawn) [Example 217, [1,1'-Biphenyl]-4-butanoic acid, 4'-chloro-α-[[[2-(hydroxymethyl)phenyl]thio]methyl]-γ-oxo-] |  |  | 83 | 245
O=C(O)CC(CSc1ccccc1)C(=O)c1ccc(-c2ccc(Cl)cc2)cc1 (stereo not drawn) [Example 257, [1,1'-Biphenyl]-4-butanoic acid, 4'-chloro-γ-oxo-β-[(phenylthio)methyl]-] |  |  | 800 | 2100
CC(C)(CC(=O)O)CC(=O)c1ccc(-c2ccc(Cl)cc2)cc1 [Example 334, [1,1'-Biphenyl]-4-pentanoic acid, 4'-chloro-β,β-dimethyl-δ-oxo-] | 42 |  |  | 6000
Cc1nc(-c2ccc(C(=O)CC(CC(C)C)C(=O)O)cc2)co1 (stereo not drawn) [Example 347, Benzenebutanoic acid, 4-(2-methyl-4-oxazolyl)-α-(2-methylpropyl)-γ-oxo-] | 12 | 0 |  | 
N#Cc1ccc(-c2ccc(C(=O)CC(CCc3ccccc3)C(=O)O)cc2)cc1 (stereo not drawn) [Example 125, [1,1'-Biphenyl]-4-butanoic acid, 4'-cyano-γ-oxo-α-(2-phenylethyl)-] |  |  | 105 | 1800
CC(C)CC(CCC(=O)O)C(=O)c1ccc(-c2ccc(Cl)cc2)cc1 (stereo not shown) [Example 342] |  |  | 360 | 700
CC(C)C[C@@H](CC(=O)c1ccc(-c2ccc(Cl)cc2)cc1)C(=O)O [Example 2, [1,1'-Biphenyl]-4-butanoic acid, 4'-chloro-α-(2-methylpropyl)-γ-oxo-, (S)-] |  |  | 270 | 2200
O=C(CC(CCCc1ccccc1)C(=O)O)c1ccc(-c2ccc([N+](=O)[O-])cc2)cc1 (stereo not drawn) [Example 63, [1,1'-Biphenyl]-4-butanoic acid, 4'-nitro-γ-oxo-α-(3-phenylpropyl)-] |  |  | 980 | 500
COCCOCC(CC(=O)c1ccc(-c2ccc(Cl)cc2)cc1)C(=O)O (stereo not shown) [Example 191, [1,1'-Biphenyl]-4-butanoic acid, 4'-chloro-=-[(2-methoxyethoxy)methyl]-γ-oxo-] |  | 62 | 330 | 
O=C(CC(CCCc1ccccc1)C(=O)O)c1ccc(-c2ccc(Cl)cc2Cl)cc1 (stereo not drawn) [Example 77, [1,1'-Biphenyl]-4-butanoic acid, 2',4'-dichloro-γ-oxo-α-(3-phenylpropyl)-] | 24 | 7 |  | 
O=C(O)CC1(CC(=O)c2ccc(-c3ccc(Cl)cc3)cc2)CCCCC1 [Example 339, Cyclohexaneacetic acid, 1-[2-(4'-chloro[1,1'-biphenyl]-4-yl)-2-oxoethyl]-] |  |  | 1700 | 1500
COc1ccc(-c2ccc(C(=O)CC(CCCc3ccccc3)C(=O)O)cc2)cc1 (stereo not drawn) [Example 73, [1,1'-Biphenyl]-4-butanoic acid, 4'-methoxy-γ-oxo-α-(3-phenylpropyl)-] |  |  | 220 | 600
O=C(CC(CSc1cccc2cccnc12)C(=O)O)c1ccc(-c2ccc(Cl)cc2)cc1 (stereo not drawn) [Example 241, [1,1'-Biphenyl]-4-butanoic acid, 4'-chloro-γ-oxo-α-[(8-quinolinylthio)methyl]-] |  |  | 195 | 340
O=C(CC(COCc1ccccc1)C(=O)O)c1ccc(-c2ccc(Cl)cc2)cc1 (stereo not drawn) [Example 192, [1,1'-Biphenyl]-4-butanoic acid, 4'-chloro-γ-oxo-α-[(phenylmethoxy)methyl]-] |  |  | 140 | 510
O=C(O)CCC(=O)c1ccc(-c2ccccc2F)cc1 [Example 9, [1,1'-Biphenyl]-4-butanoic acid, 2'-fluoro-γ-oxo-, reference compound] | 0 | 3 |  | 
